Reference: article PMC5075806, “SIKs control osteocyte responses to parathyroid hormone” (Nature Communications, 2016)

Columns and labels:
SIK2 = SIK2 (Homo sapiens, UniProt Q9H0K1); assay: DiscoverX competition binding assay with DNA/phage-tagged kinase, qPCR readout, Kd curves
SIK3 = SIK3 (Homo sapiens, UniProt Q9Y2K2); assay: DiscoverX scanEDGE competition binding panel at […] (SIK3 listed as QSK); value in Supplementary Table […]
SIK3, sequence (Q9Y2K2 whole entry): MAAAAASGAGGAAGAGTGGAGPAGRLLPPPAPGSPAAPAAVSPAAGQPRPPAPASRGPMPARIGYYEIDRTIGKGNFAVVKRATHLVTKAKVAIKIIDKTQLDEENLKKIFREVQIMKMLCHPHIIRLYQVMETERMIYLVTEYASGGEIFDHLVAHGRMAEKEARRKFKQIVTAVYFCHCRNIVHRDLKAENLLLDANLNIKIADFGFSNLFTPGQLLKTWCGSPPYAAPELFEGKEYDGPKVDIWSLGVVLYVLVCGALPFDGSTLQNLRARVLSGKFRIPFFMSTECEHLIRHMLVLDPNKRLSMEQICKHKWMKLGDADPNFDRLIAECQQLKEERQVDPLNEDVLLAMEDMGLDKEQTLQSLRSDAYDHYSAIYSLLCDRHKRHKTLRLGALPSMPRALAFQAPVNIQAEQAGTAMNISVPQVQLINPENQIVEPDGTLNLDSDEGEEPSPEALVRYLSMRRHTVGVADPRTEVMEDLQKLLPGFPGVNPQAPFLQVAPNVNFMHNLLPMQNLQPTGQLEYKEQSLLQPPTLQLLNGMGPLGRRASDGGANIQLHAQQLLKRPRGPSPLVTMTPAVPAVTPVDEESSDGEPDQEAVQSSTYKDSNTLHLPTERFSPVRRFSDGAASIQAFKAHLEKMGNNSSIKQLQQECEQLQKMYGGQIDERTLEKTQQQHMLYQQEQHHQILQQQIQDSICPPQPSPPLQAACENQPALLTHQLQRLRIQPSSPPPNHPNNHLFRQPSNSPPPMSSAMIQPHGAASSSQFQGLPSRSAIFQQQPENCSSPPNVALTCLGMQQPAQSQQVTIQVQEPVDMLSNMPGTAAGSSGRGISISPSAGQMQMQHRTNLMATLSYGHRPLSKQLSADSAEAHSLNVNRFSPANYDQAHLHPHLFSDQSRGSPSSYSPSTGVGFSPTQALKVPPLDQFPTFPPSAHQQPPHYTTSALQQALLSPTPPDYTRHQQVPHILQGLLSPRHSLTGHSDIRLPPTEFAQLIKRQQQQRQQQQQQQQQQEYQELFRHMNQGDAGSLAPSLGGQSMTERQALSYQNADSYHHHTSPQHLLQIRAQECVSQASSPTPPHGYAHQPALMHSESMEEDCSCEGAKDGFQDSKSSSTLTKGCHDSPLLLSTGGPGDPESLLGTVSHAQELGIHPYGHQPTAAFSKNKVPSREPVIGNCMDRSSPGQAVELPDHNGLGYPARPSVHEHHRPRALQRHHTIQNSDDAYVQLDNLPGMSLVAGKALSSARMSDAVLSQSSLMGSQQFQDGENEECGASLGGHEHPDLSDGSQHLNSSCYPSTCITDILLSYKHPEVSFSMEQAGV

SIK2, sequence (Q9H0K1 whole entry): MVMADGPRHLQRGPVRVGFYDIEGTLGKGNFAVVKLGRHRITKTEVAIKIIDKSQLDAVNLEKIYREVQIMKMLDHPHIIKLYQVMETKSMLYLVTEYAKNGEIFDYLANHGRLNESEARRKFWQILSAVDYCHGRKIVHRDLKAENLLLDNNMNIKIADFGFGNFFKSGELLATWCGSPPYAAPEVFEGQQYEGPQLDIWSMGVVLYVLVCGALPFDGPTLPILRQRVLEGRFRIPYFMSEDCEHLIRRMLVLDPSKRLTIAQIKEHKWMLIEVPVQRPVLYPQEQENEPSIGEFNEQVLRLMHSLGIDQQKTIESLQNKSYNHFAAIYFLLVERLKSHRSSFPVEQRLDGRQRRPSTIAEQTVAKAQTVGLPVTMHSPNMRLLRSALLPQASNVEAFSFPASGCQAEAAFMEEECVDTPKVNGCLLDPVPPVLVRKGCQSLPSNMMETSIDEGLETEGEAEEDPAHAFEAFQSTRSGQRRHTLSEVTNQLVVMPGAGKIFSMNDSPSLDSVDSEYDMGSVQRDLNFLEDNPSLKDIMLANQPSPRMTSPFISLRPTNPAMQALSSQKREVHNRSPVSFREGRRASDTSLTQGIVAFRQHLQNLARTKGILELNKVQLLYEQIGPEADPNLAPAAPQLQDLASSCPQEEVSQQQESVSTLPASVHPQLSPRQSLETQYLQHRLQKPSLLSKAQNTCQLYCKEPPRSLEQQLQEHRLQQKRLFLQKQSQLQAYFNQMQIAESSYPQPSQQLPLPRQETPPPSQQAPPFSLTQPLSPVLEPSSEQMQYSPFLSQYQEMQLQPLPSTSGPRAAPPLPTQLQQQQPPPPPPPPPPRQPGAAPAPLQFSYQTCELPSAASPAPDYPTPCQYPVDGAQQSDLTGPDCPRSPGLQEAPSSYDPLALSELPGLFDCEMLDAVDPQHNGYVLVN

Kd (SIK2): 7.1 nM
Compound: COc1ccc(N2C(=O)N(c3c(C)cccc3C)Cc3cnc(Nc4ccc(C5CCN(C)CC5)cc4OC)nc32)c(OC)c1 [YKL-05-093]
DiscoverX scanEDGE competition binding panel at 71 nM (SIK3 listed as QSK); valu (SIK3): both inhibitors potently target SIK3 in addition to SIK2
